Blank lines part the entries; values can stand above or below the compound they belong to. Where a SMILES comes first, the peptide text is derived from it. [ ]: non-standard residue; d: D form. The star is where a group is joined. Tyr(3-NO2) = N[C@@H](Cc1ccc(O)c([N+](=O)[O-])c1)C(=O)O; Boc = CC(C)(C)OC(=O)*
Columns and labels:
[1] = target: T1, recombinant active human PAI-1 (Homo sapiens (Human), UniProt P05121); experiment: Fluorometric IC50 plate assay (PAI-1 inhibition of uPA, Z-Gly-Gly-Arg-AMC); type: biochemical; settings: in vitro, PAI-1 1 nM, uPA 2.5 nM, pH 7.8, 10% DMSO; ND = not detected, e.g. no inhibition
[2] = target: T1, recombinant active human PAI-1; experiment: pH dependence of PAI-1 inhibition, fluorogenic uPA (or tPA) assay; type: biochemical; settings: for effect of pH on PAI-1 inhibition (in words): pH 6.5 to 8.5; for PAI-1 inhibitory efficacy (in words): pH 7.5 (FIG. 8), additional experiments
[3] = target: T1, recombinant active human PAI-1; experiment: Chromogenic uPA assay of PAI-1 inhibition (pGlu-Gly-Arg pNA); type: biochemical
PAI-1 [4] = experiment: PAI-1 activity assay in ex vivo plasma with and without vitronectin; type: biochemical; settings: plasma of PAI-1 null or PAI-1/vitronectin null mice, 20 nM PAI-1
active murine PAI-1 = active murine PAI-1 (Mus musculus (Mouse), UniProt P22777); experiment: In vivo efficacy in transgenic mice that overexpress PAI-1, active PAI-1 in plasma; settings: 3, 10, 30 mg/kg into the IVC, 1 hour
PAI-1 [5] = target: T2, PAI-1 (Homo sapiens (Human), UniProt P05121); experiment: Surface plasmon resonance, loss of PAI-1 binding to immobilized anhydrotrypsin; settings: PAI-1 2 nM preincubated with compound, SPR; read-out: Apparent KD (nM) ± SEM
Target sequence in this assay (P05121 24-402): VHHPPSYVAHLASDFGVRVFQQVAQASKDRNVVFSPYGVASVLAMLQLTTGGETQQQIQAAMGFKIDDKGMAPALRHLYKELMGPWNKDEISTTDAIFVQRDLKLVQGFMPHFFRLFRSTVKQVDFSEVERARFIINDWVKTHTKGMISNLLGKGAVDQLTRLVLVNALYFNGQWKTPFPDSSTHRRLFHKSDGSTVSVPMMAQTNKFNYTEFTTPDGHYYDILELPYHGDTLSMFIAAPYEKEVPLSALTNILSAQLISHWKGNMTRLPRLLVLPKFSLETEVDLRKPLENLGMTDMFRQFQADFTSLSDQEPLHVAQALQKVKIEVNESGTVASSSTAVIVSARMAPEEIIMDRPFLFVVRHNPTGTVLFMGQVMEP

PAI-1/vitronectin = PAI-1/vitronectin (Homo sapiens (Human), UniProt P05121); experiment: Inhibition of PAI-1 in the presence of vitronectin, fluorogenic uPA assay; type: biochemical
[6] = target: anti-thrombin III (ATIII) (Homo sapiens (Human), UniProt P01008); experiment: Specificity assay on anti-thrombin III (thrombin activity); type: biochemical; settings: pH 7.5 or pH 8.5, with heparin
PAI-1 [7] = target: T2, PAI-1; settings: cited from earlier work
Target sequence in this assay (P05121 24-402, species assumed): as the sequence (P05121 24-402) above

C57BL/6J and 129 mice = experiment: Oral PAI-039 in chow for two weeks, plasma PAI-1 activity and lipid profiles; type: in vivo, mouse
PAI-1 null mice = experiment: Oral PAI-039 in PAI-1 null mice, lipid analysis; type: in vivo, mouse; settings: two weeks in chow
[8] = target: recombinant active human PAI-1 preincubated with vitronectin (Homo sapiens (Human), UniProt P05121); experiment: Inhibition of vitronectin-bound PAI-1 by tannic acid, chromogenic uPA assay; type: biochemical; settings: 5-fold molar excess of vitronectin
active mouse PAI-1 = active mouse PAI-1 (Mus musculus (Mouse), UniProt P22777); experiment: Ex vivo plasma Luminex assay, mouse plasma spiked with active mouse PAI-1; type: biochemical; settings: mouse plasma spiked with active mouse PAI-1 3-4 ng/mL
[9] = target: T1, recombinant active human PAI-1; experiment: High throughput uPA chromogenic screen for PAI-1 inactivators; type: biochemical; settings: 10 μM compound; hit = more than 3 standard deviations above control
[10] = target: T1, recombinant active human PAI-1; experiment: β-trypsin screening assay for PAI-1 inhibitors; type: biochemical; settings: 10 μM compound; hit = more than 3 standard deviations above control;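 also: fluorogenic readout with PAI-1 and β-trypsin at 10:1 molar ratio, untreated PAI-1 wells set as 100% PAI-1 activity and β-trypsin alone as 0%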
PAI-1 [11] = target: T2, PAI-1; experiment: SDS-PAGE analysis of PAI-1:plasminogen activator complex formation; type: biochemical; settings: tannic acid 0-100 μM, uPA or tPA
Target sequence in this assay (P05121 24-402): as above

T1 sequence (P05121 24-402): as above
active mouse PAI-1, sequence (P22777 23-402): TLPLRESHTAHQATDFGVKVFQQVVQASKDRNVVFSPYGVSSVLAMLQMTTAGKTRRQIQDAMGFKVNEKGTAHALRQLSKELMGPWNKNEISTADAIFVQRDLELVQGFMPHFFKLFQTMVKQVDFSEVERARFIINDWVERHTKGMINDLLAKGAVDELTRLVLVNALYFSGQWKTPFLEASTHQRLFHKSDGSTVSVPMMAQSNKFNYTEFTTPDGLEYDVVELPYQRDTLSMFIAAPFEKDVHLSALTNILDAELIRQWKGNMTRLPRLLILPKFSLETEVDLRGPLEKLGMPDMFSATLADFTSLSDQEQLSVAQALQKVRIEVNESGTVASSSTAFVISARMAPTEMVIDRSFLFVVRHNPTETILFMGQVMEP
PAI-1/vitronectin, sequence (P05121 24-402): as the sequence (P05121 24-402) above
active murine PAI-1, sequence (P22777 23-402): as the sequence (P22777 23-402) above
anti-thrombin III (ATIII), sequence (P01008 33-464, species assumed): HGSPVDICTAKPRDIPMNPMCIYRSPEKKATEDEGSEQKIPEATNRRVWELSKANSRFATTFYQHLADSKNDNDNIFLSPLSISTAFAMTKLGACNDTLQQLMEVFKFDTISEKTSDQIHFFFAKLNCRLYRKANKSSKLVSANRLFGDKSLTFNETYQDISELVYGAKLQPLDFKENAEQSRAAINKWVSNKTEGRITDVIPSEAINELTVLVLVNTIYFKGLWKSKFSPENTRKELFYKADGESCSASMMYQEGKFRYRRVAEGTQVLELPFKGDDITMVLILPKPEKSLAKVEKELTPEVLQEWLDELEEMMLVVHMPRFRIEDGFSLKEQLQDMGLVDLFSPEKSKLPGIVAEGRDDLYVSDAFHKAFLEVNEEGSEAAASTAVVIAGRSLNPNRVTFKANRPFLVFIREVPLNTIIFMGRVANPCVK
recombinant active human PAI-1 preincubated with vitronectin, sequence (P05121 24-402): as the sequence (P05121 24-402) above
recombinant active human PAI-1 preincubated with vitronectin, sequence (P04004 20-478 partner): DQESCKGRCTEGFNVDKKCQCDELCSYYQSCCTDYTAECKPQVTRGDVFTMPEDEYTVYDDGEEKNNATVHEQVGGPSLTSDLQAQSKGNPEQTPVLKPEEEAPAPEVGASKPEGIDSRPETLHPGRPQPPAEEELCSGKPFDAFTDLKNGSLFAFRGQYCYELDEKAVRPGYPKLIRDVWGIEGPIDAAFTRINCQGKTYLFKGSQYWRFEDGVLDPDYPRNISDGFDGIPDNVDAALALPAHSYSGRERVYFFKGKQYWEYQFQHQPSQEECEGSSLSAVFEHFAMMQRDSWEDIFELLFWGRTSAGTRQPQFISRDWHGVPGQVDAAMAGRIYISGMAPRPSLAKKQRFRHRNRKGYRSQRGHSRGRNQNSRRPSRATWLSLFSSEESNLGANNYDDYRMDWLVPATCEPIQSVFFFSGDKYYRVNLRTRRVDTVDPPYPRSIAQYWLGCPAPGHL

Compound: CC(C)(C)OC(=O)N[C@@H](Cc1ccc(O)c([N+](=O)[O-])c1)C(=O)O [CDE-028]
IC50 [1]: 386 µM | effect of pH on PAI-1 inhibition (in words) [2]: increased with increasing pH | PAI-1 inhibitory efficacy (in words) [2]: effective inhibitors of PAI-1

Compound: O=C(O)c1cc(O)c(O)c(O)c1 [gallic acid]
effect of pH on PAI-1 inhibition (in words) [2]: increased with increasing pH to 8.5 | fold less active toward PAI-1 than tannic acid ([3]; FIG. 2): approximately 1000 fold | fold less active toward PAI-1 than tannic acid ([3]; other data (not shown)): up to 4000 fold

Compound: O=C(OCCOCCOCCOC(=O)c1cc(O)c(O)c(O)c1)c1cc(O)c(O)c(O)c1 [CDE-012]
IC50 [1]: 196 µM | PAI-1 inhibitory efficacy (in words) [2]: effective PAI-1 inhibitors

Compound: O=C(OCCOCCOC(=O)c1cc(O)c(O)c(O)c1)c1cc(O)c(O)c(O)c1 [CDE-009]
IC50 [1]: 49.3 µM | PAI-1 inhibitory efficacy (in words) [2]: effective PAI-1 inhibitors

Compound: O=C(OCC(COC(=O)c1cc(O)c(O)c(O)c1)OC(=O)c1cc(O)c(O)c(O)c1)c1cc(O)c(O)c(O)c1 [CDE-082]
Kd (PAI-1 [5]): 5.3 ± 0.2 nM

Compound: O=C(O[C@@H]1CCCC[C@H]1OC(=O)c1cc(O)c(O)c(O)c1)c1cc(O)c(O)c(O)c1 [CDE-034]
IC50 [1]: 1.17 µM | Kd (PAI-1 [5]): 67 ± 3 nM

Compound: O=C(O)C(=O)c1cn(Cc2ccccc2)c2ccc(-c3ccc(OC(F)(F)F)cc3)cc12 [PAI-039, tiplaxtinin]
PAI-1 inhibition in plasma with or without vitronectin (in words) (PAI-1 [4]): only inhibitory in plasma that lacks vitronectin | inhibition of vitronectin bound PAI-1 (in words) (PAI-1 [7]): does not inhibit vitronectin bound PAI-1 | HDL cholesterol increase (C57BL/6J and 129 mice; 129): 45% | VLDL decrease (C57BL/6J and 129 mice; 129): 35% | HDL cholesterol increase (C57BL/6J and 129 mice; C57BL/6J): 11% | VLDL decrease (C57BL/6J and 129 mice; C57BL/6J): 49% | plasma level of active PAI-1 (C57BL/6J and 129 mice; C57BL/6J mice, 5 mg PAI-039/gram of chow, two weeks): 0.37 ± 0.08 ng/mL | VLDL average decrease (C57BL/6J and 129 mice; average of C57BL/6J and 129): 42% | HDL higher, average increase for C57BL/6J and 129 mice (C57BL/6J and 129 mice; average of both strains): approximately 28% | effect on metabolism (lipid profile) in PAI-1 null mice (in words) (PAI-1 null mice): no significant effect

Compound: O=C(OCCOCCOCCOCCOC(=O)c1cc(O)c(O)c(O)c1)c1cc(O)c(O)c(O)c1 [CDE-011]
IC50 [1]: 338 µM | PAI-1 inhibitory efficacy (in words) [2]: effective PAI-1 inhibitors

Compound: O=C(Oc1cc(O)cc2c1C[C@@H](OC(=O)c1cc(O)c(O)c(O)c1)[C@@H](c1cc(O)c(O)c(O)c1)O2)c1cc(O)c(O)c(O)c1 [epigallocatechin 3,5 digallate]
screening hit: restoration of uPA activity [9]: positive hits

Compound: O=S(=O)(NNS(=O)(=O)c1ccc(O)c(O)c1)c1ccc(O)c(O)c1 [CDE-059]
IC50 [1]: 0.09 µM | IC50 (active mouse PAI-1): 973 µM

Compound: CC(C)(C)OC(=O)N[C@@H](Cc1ccc(O)c([N+](=O)[O-])c1)C(=O)N[C@@H](Cc1ccc(O)c([N+](=O)[O-])c1)C(=O)O [CDE-035] (Boc-[Tyr(3-NO2)]-[Tyr(3-NO2)]-OH)
IC50 [1]: 146 µM

Compound: CC(C)(COC(=O)c1cc(O)c(O)c(O)c1)COC(=O)c1cc(O)c(O)c(O)c1 [CDE-067]
IC50 [1]: 48.3 µM

Compound: O=C(O[C@H]1CC[C@H](OC(=O)c2cc(O)c(O)c(O)c2)CC1)c1cc(O)c(O)c(O)c1 [CDE-062]
IC50 [1]: 332 µM

Compound: CCOC(=O)[C@H](Cc1ccc(O)c([N+](=O)[O-])c1)NC(=O)[C@H](Cc1ccc(O)c([N+](=O)[O-])c1)NC(=O)OC(C)(C)C [CDE-033] (Boc-[Tyr(3-NO2)]-[Tyr(3-NO2)]-OEt)
IC50 [1]: 246 µM

Second part, led by results:

IC50 [1]: 450 µM | effect of pH on PAI-1 inhibition (in words) [2]: increased with increasing pH | PAI-1 inhibitory efficacy (in words) [2]: effective inhibitors of PAI-1
Compound: O=S(=O)(NCCNS(=O)(=O)c1ccc(O)c(O)c1)c1ccc(O)c(O)c1 [CDE-021]

active PAI-1 in plasma after treatment (in words) (active murine PAI-1): dose-dependent decrease in active PAI-1
Compound: O=C(OC[C@H]1OC(OC(=O)c2cc(O)c(O)c(O)c2)[C@H](OC(=O)c2cc(O)c(O)c(O)c2)[C@@H](OC(=O)c2cc(O)c(O)c(O)c2)[C@H]1OC(=O)c1cc(O)c(O)c(O)c1)c1cc(O)c(O)c(O)c1 (some centres unmarked) [CDE-066]
PAI-1 inhibition in plasma with or without vitronectin (in words) (PAI-1 [4]): inhibited PAI-1 equally well in plasma with or with out physiologic vitronectin

IC50 [1]: 0.37 µM | Kd (PAI-1 [5]): 23 ± 1 nM | change of IC50 in the presence of vitronectin (PAI-1/vitronectin; at each pH (7.5 and 8.5)): 1 log value | IC50 ([2]; pH 6.5): 325 µM | IC50 ([2]; pH 7.5): 0.288 µM | IC50 ([2]; pH 8.5): 0.064 µM | effect on ATIII activity (in words) [6]: no effect
Compound: O=C(OCCOC(=O)c1cc(O)c(O)c(O)c1)c1cc(O)c(O)c(O)c1 [CDE-008]
inhibition of PAI-1 in the presence of vitronectin (in words) (PAI-1/vitronectin; 200 nM vitronectin, pH 7.5 and pH 8.5): inhibits PAI-1 in the presence of vitronectin at both pH 7.5 and pH 8.5 | effect of pH on PAI-1 inhibition (in words) [2]: more effective inhibitor at pH 8.5 than at pH 7.5

IC50 [1]: 0.28 µM | Kd (PAI-1 [5]): 31 ± 2 nM | effect of pH on PAI-1 inhibition (in words) [2]: increased with increasing pH | PAI-1 inhibitory efficacy (in words) [2]: effective inhibitors of PAI-1
Compound: O=C(O[C@H]1CCCC[C@H]1OC(=O)c1cc(O)c(O)c(O)c1)c1cc(O)c(O)c(O)c1 [CDE-031]

IC50 ([2]; pH 6.5): 7.36 µM | effect of pH on PAI-1 inhibition (in words) [2]: improved by increasing pH | IC50 ([2]; pH 7.5): 7.15 µM | IC50 ([2]; pH 8.5): 0.0091 µM | IC50 (active mouse PAI-1): 9.68 µM | screening hit: restoration of uPA activity [9]: positive hits | screening hit: restoration of β-trypsin activity [10]: demonstrate PAI-1 inhibitor activity | effect on PAI-1:PA complex formation (in words) (PAI-1 [11]): converts PAI-1 to a substrate for PAs | IC50 ([3]; some experiments (not shown in FIG. 2)): 2.5 µM
Compound: O=C(OC[C@H]1O[C@@H](OC(=O)c2cc(O)c(O)c(OC(=O)c3cc(O)c(O)c(O)c3)c2)[C@H](OC(=O)c2cc(O)c(O)c(OC(=O)c3cc(O)c(O)c(O)c3)c2)[C@@H](OC(=O)c2cc(O)c(O)c(OC(=O)c3cc(O)c(O)c(O)c3)c2)[C@@H]1OC(=O)c1cc(O)c(O)c(OC(=O)c2cc(O)c(O)c(O)c2)c1)c1cc(O)c(O)c(OC(=O)c2cc(O)c(O)c(O)c2)c1 [Tannic acid, tannic acid]
inhibition of vitronectin-bound PAI-1 (in words) [8]: inhibited PAI-1 activity even when bound to vitronectin

IC50 [1]: 10.2 µM | effect of pH on PAI-1 inhibition (in words) [2]: increased with increasing pH | PAI-1 inhibitory efficacy (in words) [2]: effective inhibitors of PAI-1
Compound: CCN(CCN(CC)S(=O)(=O)c1ccc(O)c(O)c1)S(=O)(=O)c1ccc(O)c(O)c1 [CDE-032]

IC50 [1]: 195 µM
Compound: O=C(O[C@@H]1CCC[C@H](OC(=O)c2cc(O)c(O)c(O)c2)C1)c1cc(O)c(O)c(O)c1 [CDE-057]

IC50 [1]: 2.96 µM | Kd (PAI-1 [5]): 51 ± 6 nM
Compound: O=C(Oc1ccccc1OC(=O)c1cc(O)c(O)c(O)c1)c1cc(O)c(O)c(O)c1 [CDE-056]

IC50 [1]: 7.85 µM | PAI-1 inhibitory efficacy (in words) [2]: effective PAI-1 inhibitors
Compound: O=C(OCCCOC(=O)c1cc(O)c(O)c(O)c1)c1cc(O)c(O)c(O)c1 [CDE-013]

Reference: patent publication US9120744B2, “Plasminogen activator inhibitor-1 inhibitors and methods of use thereof to modulate lipid metabolism” (THE REGENTS OF THE UNIVERSITY OF MICHIGAN, priority 2007, dated 2015)
